{"source": "EPA's ToxValDB 9.5 (doi:10.2903/j.efsa.2008.116r)", "key": {"Aphidius rhopalosiphi": {"test_system": "Aphidius rhopalosiphi", "assay": "LR50; higher = less toxic", "conditions": "not reported; mortality"}, "Typhlodromus pyri": {"test_system": "Typhlodromus pyri", "assay": "LR50; higher = less toxic", "conditions": "not reported; mortality"}, "Mus musculus": {"test_system": "Mus musculus", "conditions": "acute; oral; mortality"}, "Canidae": {"test_system": "Canidae", "conditions": "oral, Dog Other, clinical chemistry"}, "Apis mellifera": {"test_system": "Apis mellifera", "conditions": "acute; duration: 48 hours; dermal; mortality"}, "Tagia sp.": {"test_system": "Tagia sp.", "conditions": "acute; duration: 14 days; mortality"}, "Oncorhynchus mykiss": {"test_system": "Oncorhynchus mykiss", "conditions": "chronic/long-term; duration: 21 days; growth"}, "Coturnix coturnix": {"test_system": "Coturnix coturnix", "conditions": "reproduction developmental"}, "Lepomis macrochirus": {"test_system": "Lepomis macrochirus", "conditions": "acute; duration: 96 hours; mortality"}, "Daphnia magna": {"test_system": "Daphnia magna", "conditions": "chronic/long-term; duration: 21 days; reproduction"}, "Coturnix japonica": {"test_system": "Coturnix japonica", "conditions": "acute, oral, mortality"}}, "data": [{"smiles": "COc1cc(OC)nc(NC(=O)NS(=O)(=O)N(C)S(C)(=O)=O)n1", "note": "[Amidosulfuron]", "values": [{"measurement": "LR50", "setting": "Aphidius rhopalosiphi", "value": "> 45", "unit": "g/ha"}, {"measurement": "LR50", "setting": "Typhlodromus pyri", "value": "> 45", "unit": "g/ha"}, {"measurement": "LD50", "setting": "Mus musculus", "value": "≥ 5000", "unit": "mg/kg-day"}, {"measurement": "NOAEL", "setting": "Canidae; chronic, duration: 52 weeks", "value": 144, "unit": "mg/kg-day"}, {"measurement": "NOAEL", "setting": "Canidae; subchronic, duration: 3 months", "value": 144, "unit": "mg/kg-day"}, {"measurement": "NOEC", "setting": "Rattus norvegicus; chronic, mortality", "value": 400, "unit": "mg/kg-day"}, {"measurement": "NOAEL", "setting": "Rattus norvegicus; reproduction developmental, body weight", "value": 22.5, "unit": "mg/kg-day"}, {"measurement": "NOEC", "setting": "Rattus norvegicus; reproduction developmental, organ weight", "value": 22.5, "unit": "mg/kg-day"}, {"measurement": "LD50", "setting": "Apis mellifera", "value": "> 100", "unit": "µg/piece"}, {"measurement": "LC50", "setting": "Tagia sp.", "value": "> 1000", "unit": "mg/kg"}, {"measurement": "NOEC", "setting": "Oncorhynchus mykiss", "value": 6.41, "unit": "mg/L"}, {"measurement": "NOEC", "setting": "Coturnix coturnix", "value": 1000, "unit": "mg/kg-day"}, {"measurement": "LC50", "setting": "Lepomis macrochirus", "value": "> 100", "unit": "µg/mL"}, {"measurement": "NOEC", "setting": "Daphnia magna", "value": 1, "unit": "mg/L"}, {"measurement": "LC50", "setting": "Coturnix japonica; diet", "value": "> 1170", "unit": "mg/kg-day"}, {"measurement": "LD50", "setting": "Coturnix japonica", "value": "> 2000", "unit": "mg/kg-day"}]}]}
